Test results: article PMC2747801 (European journal of pharmaceutical sciences : official …, 2009)
Where “and” joins values, the source holds several entries; their conditions need not be identical. Identical values can stand only once. Like-named read-outs stand apart in the source and are kept apart here.

Key:
[1] = cited from earlier work
[2] = for logPS(obs) / Pgp Mutant Kin: male, pH 7.4; for logPS(obs) / brain uptake clearance: in vivo
P-glycoprotein (Pgp) [3] = settings: male, CF-1, mouse, not told, pH 7.4
P-glycoprotein (Pgp) [4] = assay: Pgp effect: ratio of Pgp-deficient to wild-type uptake clearance; settings: for Pgp Effect: ratio of Pgp-deficient Kin to wild-type Kin, CF-1 mice
[5] = rat, cited from earlier work
[6] = PAMPA intrinsic permeability, cited from earlier work
[7] = male, CF-1, mouse, in vivo, 1 µM, pH 7.4
[8] = cited from earlier work; remark: listed apart in the source
[9] = rodent and comment not printed ref Fernstermacher 1989; cited from earlier work
[10] = rat, 5-50uM self-inhibition, training set ref Summerfield et al. 2007

| Structure (SMILES) | logPo^PAMPA | Pgp Effect (P-glycoprotein (Pgp) [4]) | Wild-Type Kin [7] [mL/100g/min] | Pgp Mutant Kin ([2]; CF-1, mouse, 1 µM) [mL/100g/min] | logPS(obs) ([2]; CF-1, mouse, 1 µM) [mL/g/s] | further results |
| --- | --- | --- | --- | --- | --- | --- |
| NCC1(CC(=O)O)CCCCC1 [gabapentin] | −3.36 | – | – | – | – | logPS(obs) ([1]; rat, in vivo): −2.56 mL/g/s; logPS(obs) ([2]; mouse): −2.34 mL/g/s; Pgp Mutant Kin ([2]; mouse): 26 mL/100g/min; Pgp Effect (P-glycoprotein (Pgp) [3]): 1.7 |
| N[C@@H](Cc1ccc(F)cc1)C(=O)O [p-F-L-phenylalanine] | – | 1.1 | – | – | – | – |
| CN1CC(=O)NC1=N [creatinine] | −7.52 | – | – | – | – | logPS(obs) ([5]; i.v. ref Levin 1980): −4.55 mL/g/s and −4.70 mL/g/s |
| N[C@H](Cc1ccc(F)cc1)C(=O)O [p-F-D-phenylalanine] | – | 1.1 | – | – | – | – |
| COc1ccc(CCN2CCC(Nc3nc4ccccc4n3Cc3ccc(F)cc3)CC2)cc1 [astemizole] | – | – | 112 | 123 | −1.55 | logPo^PAMPA ([6]; ref Bendels et al. 2006): 1.00; Pgp Effect (P-glycoprotein (Pgp) [3]): 1.1 |
| CC(C)(C)NC(=O)[C@@H]1CN(Cc2cccnc2)CCN1C[C@@H](O)C[C@@H](Cc1ccccc1)C(=O)N[C@H]1c2ccccc2C[C@H]1O [indinavir] | – | – | 0.52 | – | – | – |
| NC(=O)N1c2ccccc2C=Cc2ccccc21 [carbamazepine] | −3.73 | 1.1 | 173 | 184 | −1.26 | logPS(obs) [1, 10]: −1.75 mL/g/s |
| COc1ccc(Cl)cc1C(=O)NCCc1ccc(S(=O)(=O)NC(=O)NC2CCCCC2)cc1 [glibenclamide] | – | – | – | – | – | logPo^PAMPA ([6]; ref Bendels et al. 2006): −2.54; logPS(obs) ([1]; rat ref Murakami et al. 2000): −2.77 mL/g/s; logPS(obs) ([8]; mouse ref Murakami et al. 2000): −3.27 mL/g/s |
| CC(C)(C)c1ccc(C(O)CCCN2CCC(C(O)(c3ccccc3)c3ccccc3)CC2)cc1 (stereo not drawn) [terfenadine] | – | – | 126 | 129 | −1.52 | logPo^PAMPA ([6]; ref Ruell et al. 2004, Avdeef et al. 2007): 2.63 |
| O=C1CC2(CCCC2)CC(=O)N1CCCCN1CCN(c2ncccn2)CC1 [buspirone] | – | 1.0 | 325 | 341 | – | – |
| Cc1cn([C@H]2C[C@H](N=[N+]=[N-])[C@@H](CO)O2)c(=O)[nH]c1=O [zidovudine] | −5.79 | – | – | – | – | logPS(obs) ([5]; i.v. ref Wu et al. 1998): −3.99 mL/g/s |
| CN/C(=N/CCSCc1nc[nH]c1C)NC#N [cimetidine] | – | – | – | – | – | logPo^PAMPA ([6]; ref Avdeef et al. 2005): −6.20; logPS(obs) ([1]; rat ref Murakami et al. 2000): −4.05 mL/g/s; logPS(obs) ([8]; mouse ref Murakami et al. 2000): −4.10 mL/g/s |
| CCCN(CCC)S(=O)(=O)c1ccc(C(=O)O)cc1 [probenecid] | – | 1.4 | 0.069 | 0.098 | −4.79 | logPo^PAMPA ([6]; ref Ruell et al. 2004): −1.83 |
| O=C1NC(=O)C(c2ccccc2)(c2ccccc2)N1 [phenytoin] | – | – | – | – | – | logPo^PAMPA ([6]; ref Ruell et al. 2004): −4.32; logPS(obs) ([1]; rat ref Liu et al. 2004): −2.20 mL/g/s; logPS(obs) [1, 10]: −2.07 mL/g/s; logPS(obs) [9]: −2.30 mL/g/s |
| CC[C@]1(O)C[C@H]2CN(CCc3c([nH]c4ccccc34)[C@@](C(=O)OC)(c3cc4c(cc3OC)N(C=O)[C@H]3[C@@](O)(C(=O)OC)[C@H](OC(C)=O)[C@]5(CC)C=CCN6CC[C@]43[C@@H]65)C2)C1 [vincristine] | −2.72 | – | – | – | – | logPS(obs) ([1]; rat ref Greig et al. 1990): −3.91 mL/g/s; logPS(obs) ([1]; rat ref Murakami et al. 2000): −4.10 mL/g/s; logPS(obs) [9]: −4.00 mL/g/s; logPS(obs) ([8]; mouse ref Murakami et al. 2000): −4.12 mL/g/s; logPS(obs) ([8]; mouse, mdr1a(−/−) ref Cisternino et al. 2001): −3.82 mL/g/s; logPS(obs) ([8]; mouse, mrp1(−/−), footnote x ref Cisternino et al. 2003): −4.25 mL/g/s |
| CCCN1C[C@H](C)N([C@H](c2ccc(C(=O)N(CC)CC)cc2)c2cccc(OC)c2)C[C@H]1C [SNC121] | −1.24 | – | – | – | – | Pgp effect ratios (P-glycoprotein (Pgp) [4]; compounds with down-step in rank classification for wild-type PS values (Fig. 3)): 8.6; logPS(obs) ([8]; mouse, in vivo): −1.44 mL/g/s |
| COc1ccc2c3c1O[C@H]1C[C@@H](O)C=C[C@@]31CCN(C)C2 [galanthamine] | −3.15 | – | – | – | – | logPS(obs) ([2]; mouse): −2.46 mL/g/s; Pgp Mutant Kin ([2]; mouse): 20 mL/100g/min; Pgp Effect (P-glycoprotein (Pgp) [3]): 1.1 |
| CN[C@H]1CC[C@@H](c2ccc(Cl)c(Cl)c2)c2ccccc21 [sertraline] | 2.10 | 1.0 | – | – | – | – |
| CC(C)(C)NC(=O)[C@@H]1C[C@@H]2CCCC[C@@H]2CN1C[C@@H](O)[C@H](Cc1ccccc1)NC(=O)[C@H](CC(N)=O)NC(=O)c1ccc2ccccc2n1 [saquinavir] | −3.69 | – | 2.9 | 11 | −2.73 | – |
| CN(C)CCC=C1c2ccccc2CCc2ccccc21 [amitriptyline] | – | 1.2 | 335 | 408 | −0.66 | logPo^PAMPA ([6]; ref Avdeef et al. 2006): 1.30; logPS(obs) [1, 10]: −1.05 mL/g/s; brain uptake clearance ([2]; mouse): > 255 mL/100 g/min |
| CN(C)CCCN1c2ccccc2Sc2ccc(Cl)cc21 [chlorpromazine] | – | 1.0 | 300 | 295 | −1.08 | logPo^PAMPA ([6]; ref Avdeef et al. 2004, Ruell et al. 2004): 1.62; logPS(obs) [1, 10]: −1.20 mL/g/s; brain uptake clearance ([2]; mouse): > 255 mL/100 g/min |
| Cn1c(=O)c2[nH]cnc2n(C)c1=O [theophylline] | – | – | – | – | – | logPo^PAMPA ([6]; ref Avdeef et al. 2006): −5.99; logPS(obs) ([1]; rat ref Liu et al. 2004): −2.90 mL/g/s; logPS(obs) ([1]; rat ref Murakami et al. 2000): −2.81 mL/g/s; logPS(obs) ([8]; mouse ref Murakami et al. 2000): −3.26 mL/g/s |
| CN1CCN(C2=Nc3cc(Cl)ccc3Nc3ccccc32)CC1 [clozapine] | −0.39 | – | 118 | 90 | −1.73 | – |
